Assay results taken from patent publication US8980904B2, “Heterocyclic substituted pyrimidine compound” (Xuanzhu Pharma Co., Ltd., priority 2011, dated 2015).
Where “and” joins values, the source holds several entries; their conditions need not be identical. Equal entries are not always repeated. Where two headings read alike, the source gives them in different places.

Assays:
[1] = biological target: PDE-5A (Homo sapiens (Human), UniProt O76074); test: Caliper Mobility-Shift PDE-5A Assay; format: biochemical
Experimental: Caliper Mobility-Shift PDE-5A Assay:
A sample to be tested is precisely weighed, dissolved by adding DMSO, mixed sufficiently to form 10 mM solution.
The maximum final concentration of the compound was 10 μM. After incubation at 30° C. for 1 h, 20 μl of 70 μM EDTA was added to terminate reaction. Substrate and products were separated and analyzed by electrophoresis. Conversion rate was calculated by Caliper's Reviewer software, and inhibition rate was calculated by the following formulation, and IC50 was calculated from inhibition rate using Prism 5.0. Inhibition rate=[conversion rate (ZPE)−conversion rate (sample)]×100/[conversion rate (ZPE)−conversion rate (HPE)]
Notation: HPE: blank control without adding enzyme; ZPE: blank control without adding compound.

[2] = Determination of half-life in SD rats (IV and PO, plasma LC-MS/MS); details: Sprague-Dawley (SD), rat
Experimental: (§1) Avanafil as control drug and the compounds of the present invention (self-made) were dissolved with suitable solvents.
Instruments: API4000 LC-MS/MS
(§2) Chromatography column: Agilent XDB C18 (2.1×50 mm, 5 μm)
(§3) Blood sampling in rats: animals were fixed, tails were heated with water-bath at 10 min before each time point, about 100 μl of blood was collected via caudal vein, and the collected blood samples were placed in heparin sodium-containing anticoagulation tubes. The blood samples were centrifuged at 4° C. and 8,000 rpm for 6 min to obtain blood plasma samples, in which the blood plasma samples should be prepared with 30 min after blood sampling. The blood plasmas were stored in refrigerator with −80° C.
(§4) (1) Samples to be tested were taken out from refrigerator (−80° C.), melt at room temperature, then subjected to volution for 5 min;
(§5) (2) 20 μl of sample was precisely moved to 1.5 ml centrifuge tube;
(§6) (3) 200 μl of internal standard solution was added;
(§7) (4) After 5 min of volution, 5 min of centrifugation (12,000 rpm) was carried out;
(§8) (5) 100 μl of supernatant was precisely taken, 100 μl of water was added, subjected to volution for 5 min, and analyzed by LC-MS/MS.
(§9) Concentrations of samples to be tested (blood plasma samples) were the output results of Analyst 1.5.1 of AB SCIEX (Shanghai Aibocaisi Analytical Instruments Trading Co., Ltd.). Mean values, standard deviations and parameters such as variable coefficients were calculated by Microsoft Excel (when parameters were directly given by Analyst 1.5.1, they were not calculated). PK parameters were calculated using Pharsight Phoenix 6.1 software.

[3] = system: PDE-6; details: background art, cited from earlier work
[4] = system: New Zealand rabbits; test: Effects on penis length (AUC) by intravenous administration in New Zealand rabbits; format: in vivo; details: 10 mg/kg IV, sodium nitroprusside 0.2 mg/kg IV 5 min after administration
Excerpt: New Zealand rabbits were subjected to adapt environment, and the rabbits were catched everyday before experiment so that the rabbits were used to repeated catching operation, then administration and stimulation were lunched. The animals were randomly divided according to bodyweight, samples to be tested were separately dissolved with solvent (Table 3 group: Avanafil and Compound 19 were separately dissolved with 5% DMSO+30% Cremophor EL+65% water for injection; Table 4 group, Table 5 group: Avanafil, Compound 14, Compound 17 and Compound 7 were separately dissolved with 45% DMA+20% Cremophor EL+35% water for injection; Table 6 group: Avanafil and Compound 15 were separately dissolved with 30% DMF+50% PEG-400+20% water for injection), corresponding samples to be tested were injected via ear flange veins of these groups, Table 3, Table 4, Table 5, Table 6 groups all had dose of 10 mg/kg, administration volume of 2 ml/kg, 0.2 mg/kg of sodium nitroprusside was intravenously injected in administration volume of 0.5 ml/kg after 5 min of administration.
Lengths of penis of rabbits were measured by digital vernier caliper separately before administration and at 5, 10, 15, 30, 50, 60, 90 and 120 min after administration. During each measurement, touching between penis and vernier caliper should be avoided.

[5] = cited from earlier work
[6] = biological target: PDE-11 (Homo sapiens (Human), UniProt Q9HCR9); details: background art; cited from earlier work
[7] = rat, in vivo, 2 mg/kg
Experimental: as §1
Instruments: API4000 LC-MS/MS
as §2, §3, §4, §5, §6, §7, §8, §9

[8] = in vivo; details: Sprague-Dawley (SD), rat, iv, 1 mg/kg
Experimental: as §1
Instruments: API4000 LC-MS/MS
as §2, §3, §4, §5, §6, §7, §8, §9

[9] = test compound, read-out: IC50 values for PDE-5A, PDE-5A
[10] = Table 6 group, 30% DMF+50% PEG-400+20% water for injection
[11] = Table 3 group, 5% DMSO+30% Cremophor EL+65% water for injection
[12] = Table 4 group, 45% DMA+20% Cremophor EL+35% water for injection
[13] = Table 5 group, 45% DMA+20% Cremophor EL+35% water for injection

Chain of PDE-11 (Q9HCR9 whole entry): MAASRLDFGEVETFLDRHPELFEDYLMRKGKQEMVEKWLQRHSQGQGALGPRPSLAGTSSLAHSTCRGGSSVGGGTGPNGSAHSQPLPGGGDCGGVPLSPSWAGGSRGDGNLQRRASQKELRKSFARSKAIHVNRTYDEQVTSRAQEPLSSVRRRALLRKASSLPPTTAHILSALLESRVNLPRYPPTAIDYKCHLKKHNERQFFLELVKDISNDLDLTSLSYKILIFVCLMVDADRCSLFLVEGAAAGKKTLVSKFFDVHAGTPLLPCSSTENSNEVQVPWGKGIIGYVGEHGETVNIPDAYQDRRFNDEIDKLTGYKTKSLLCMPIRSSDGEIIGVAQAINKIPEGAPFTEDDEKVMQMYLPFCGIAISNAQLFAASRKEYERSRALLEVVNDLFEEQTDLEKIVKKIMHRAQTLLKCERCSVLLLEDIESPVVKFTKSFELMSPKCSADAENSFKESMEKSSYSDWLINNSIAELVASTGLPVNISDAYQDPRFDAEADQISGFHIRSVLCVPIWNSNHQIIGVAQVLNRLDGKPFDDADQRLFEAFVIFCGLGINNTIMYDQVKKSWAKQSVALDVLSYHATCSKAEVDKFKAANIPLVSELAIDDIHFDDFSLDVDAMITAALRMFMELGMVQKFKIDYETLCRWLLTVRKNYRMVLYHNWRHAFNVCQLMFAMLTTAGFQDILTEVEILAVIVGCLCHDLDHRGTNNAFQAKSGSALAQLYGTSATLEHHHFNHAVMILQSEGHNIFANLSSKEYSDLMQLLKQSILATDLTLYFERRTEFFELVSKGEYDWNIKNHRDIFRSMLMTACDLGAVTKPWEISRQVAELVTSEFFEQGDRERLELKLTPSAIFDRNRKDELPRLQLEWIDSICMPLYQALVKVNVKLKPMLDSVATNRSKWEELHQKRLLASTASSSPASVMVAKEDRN

Compound | IC50 [1, 9] | half-life ([2]; iv, 1 mg/kg) | further results
COc1ccc(COc2nc(N3CC4CC4C3)ncc2C(=O)NCc2ccccc2)cc1Cl (stereo not drawn) [Compound 1, N-benzyl-2-(3-azadicyclo[3.1.0]hexan-3-yl)-4-(3-chloro-4-methoxybenzyloxy) pyrimidine-5-carboxamide] | 0.172 nM | 3.96 h | 
CCCc1nc(C)c2c(=O)[nH]c(-c3cc(S(=O)(=O)N4CCN(CC)CC4)ccc3OCC)nn12 [Vardenafil] |  |  | inhibition of PDE-6 [3]: inhibit PDE-6 to some extent
COc1ccc(COc2nc(N3CC4CC4C3)ncc2C(=O)NCc2cnc(C)cn2)cc1Cl (stereo not drawn) [Compound 5, 2-(3-azadicyclo[3.1.0]hexan-3-yl)-4-(3-chloro-4-methoxy-benzyloxy)-N-[(5-methylpyrazin-2-yl)methyl]pyrimidine-5-carboxamide] | 0.529 nM |  | 
COc1ccc(COc2nc(N3CC4CC4C3)ncc2C(=O)NCc2ccc(F)cc2)cc1Cl (stereo not drawn) [Compound 6, 2-(3-azadicyclo[3.1.0]hexan-3-yl)-4-(3-chloro-4-methoxy-benzyloxy)-N-(4-fluorobenzyl)pyrimidine-5-carboxamide] | 0.075 nM | 1.74 h | 
COc1ccc(COc2nc(N3CC4CC4C3)ncc2C(=O)NCCN2CCOCC2)cc1Cl (stereo not drawn) [Compound 13, 2-(3-azadicyclo[3.1.0]hexan-3-yl)-4-(3-chloro-4-methoxy-benzyloxy)-N-(2-morpholinylethyl)pyrimidine-5-carboxamide] | 0.213 nM |  | 
COc1ccc(COc2nc(N3CCC4(CC4)C3)ncc2C(=O)NCc2ccccc2)cc1Cl [Compound 15, N-benzyl-4-(3-chloro-4-methoxybenzyloxy)-2-(5-azaspiro[2.4]heptan-5-yl)-pyrimidine-5-carboxamide] | 0.119 nM | 3.32 h | Effects on penis length, AUC (mm × min) [4, 10]: 339.3 mm × min
COc1ccc(COc2nc(N3CCC4(CC4)C3)ncc2C(=O)NCc2ncccn2)cc1Cl [Compound 18, 4-(3-chloro-4-methoxybenzyloxy)-N-(pyrimidin-2-ylmethyl)-2-(5-azaspiro[2.4]heptan-5-yl)-pyrimidine-5-carboxamide] | 1.44 nM |  | 
COc1ccc(COc2nc(N3CCC4(CC4)C3)ncc2C(=O)N[C@H]2CC[C@H](O)CC2)cc1Cl [Compound 19, 4-(3-chloro-4-methoxybenzyloxy)-N-[(trans)-4-hydroxycyclohexyl]-2-(5-azaspiro[2.4]heptan-5-yl)-pyrimidine-5-carboxamide] | 4.08 nM | 1.17 h | Effects on penis length, AUC (mm × min) [4, 11]: 523.3 mm × min; half-life ([2]; po, 2 mg/kg): 1.97 h
COc1ccc(COc2nc(N3CCC4(CC3)CC4)ncc2C(=O)NCc2ccccn2)cc1Cl [Compound 9, 4-(3-chloro-4-methoxybenzyloxy)-N-(pyridin-2-ylmethyl)-2-(6-azaspiro[2.5]octan-6-yl)pyrimidine-5-carboxamide] | 0.186 nM |  | 
COc1ccc(COc2nc(N3CCC4(CC4)C3)ncc2C(=O)NCc2ccc(F)cc2)cc1Cl [Compound 17, 4-(3-chloro-4-methoxybenzyloxy)-N-(4-fluorobenzyl)-2-(5-azaspiro[2.4]heptan-5-yl)pyrimidine-5-carboxamide] | 2.08 nM | 1.64 h | Effects on penis length, AUC (mm × min) [4, 12]: 300.9 mm × min; half-life ([2]; po, 2 mg/kg): 3.26 h
COc1ccc(COc2nc(N3CC4CC4C3)ncc2C(=O)N[C@H]2CC[C@H](O)CC2)cc1Cl (stereo partly drawn) [Compound 7, 2-(3-azadicyclo[3.1.0]hexan-3-yl)-4-(3-chloro-4-methoxy-benzyloxy)-N-[(trans)-4-hydroxycyclohexyl]pyrimidine-5-carboxamide] | 0.739 nM |  | Effects on penis length, AUC (mm × min) [4, 13]: 191.5 mm × min; half-life ([2]; iv, 2 mg/kg): 1.02 h; half-life ([2]; po, 4 mg/kg): 1.59 h
COc1ccc(CN=c2[nH]c(N3CCC[C@H]3CO)ncc2C(=O)NCc2ncccn2)cc1Cl [Avanafil, reference compound] |  |  | IC50 ([1]; Avanafil control value given, read-out: IC50 values for PDE-5A, Avanafil/PDE-5A): 10.8 nM (11×) and 19.2 nM and 12.7 nM (2×) and 17.3 nM (4×); Effects on penis length, AUC (mm × min) [4, 11]: 155.1 mm × min; Effects on penis length, AUC (mm × min) [4, 12]: 132.3 mm × min; Effects on penis length, AUC (mm × min) [4, 13]: 168.3 mm × min; Effects on penis length, AUC (mm × min) [4, 10]: 146.4 mm × min; ratio of PDE-6/5 ([3]; selectivity): about 120; half-life in human body [5]: about 1.2 h; inhibition of PDE-11 [6]: does not inhibit PDE-11; half-life ([2]; iv, 2 mg/kg): 0.53 h; half-life ([2]; po, 2 mg/kg): 0.51 h
CCCc1nn(C)c2c(=O)[nH]c(-c3cc(S(=O)(=O)N4CCN(C)CC4)ccc3OCC)nc12 [Sildenafil] |  |  | inhibition of PDE-6 [3]: inhibit PDE-6 to some extent
COc1ccc(COc2nc(N3CCCC34CC4)ncc2C(=O)N[C@H]2CC[C@H](O)CC2)cc1Cl [Compound 20, 4-(3-chloro-4-methoxybenzyloxy)-N-[(trans)-4-hydroxycyclohexyl]-2-(4-azaspiro[2.4]heptan-4-yl)pyrimidine-5-carboxamide] |  | 0.87 h | 
CN1CC(=O)N2[C@H](c3ccc4c(c3)OCO4)c3[nH]c4ccccc4c3C[C@@H]2C1=O [Tadalafil] |  |  | half-life in human body [5]: about 16 h
COc1ccc(COc2nc(N3CCC4(CC3)CC4)ncc2C(=O)NCCN2CCOCC2)cc1Cl [Compound 11, 4-(3-chloro-4-methoxybenzyloxy)-N-(2-morpholinylethyl)-2-(6-azaspiro[2.5]octan-6-yl)pyrimidine-5-carboxamide] | 0.935 nM |  | 
COc1ccc(COc2nc(N3CC4CC4C3)ncc2C(=O)NCc2ccccn2)cc1Cl (stereo not drawn) [Compound 4, 2-(3-azadicyclo[3.1.0]hexan-3-yl)-4-(3-chloro-4-methoxybenzyloxy)-N-(pyridin-2-ylmethyl)pyrimidine-5-carboxamide] | 0.028 nM | 0.66 h | 
COc1ccc(COc2nc(N3C4CCC3COC4)ncc2C(=O)NCc2ccccc2)cc1Cl [Compound 2, N-benzyl-2-(3-oxa-8-azadicyclo[3.2.1]octan-8-yl)-4-(3-chloro-4-methoxybenzyloxy)pyrimidine-5-carboxamide] | 4.01 nM |  | t1/2 (h) PO [7]: No; half-life [8]: 1.51 h
COc1ccc(COc2nc(N3CC4CC4C3)ncc2C(=O)NCc2ncccn2)cc1Cl (stereo not drawn) [Compound 3, 2-(3-azadicyclo[3.1.0]hexan-3-yl)-4-(3-chloro-4-methoxy-benzyloxy)-N-(pyrimidin-2-ylmethyl)pyrimidine-5-carboxamide] | 0.1 nM |  | 
COc1ccc(COc2nc(N3CCC4(CC3)CC4)ncc2C(=O)NCc2ncccn2)cc1Cl [Compound 8, 4-(3-chloro-4-methoxybenzyloxy)-N-(pyrimidin-2-ylmethyl)-2-(6-azaspiro[2.5]octan-6-yl)pyrimidine-5-carboxamide] | 0.476 nM | 1.34 h | 
COc1ccc(COc2nc(N3CCC4(CC3)CC4)ncc2C(=O)N[C@H]2CC[C@H](O)CC2)cc1Cl [Compound 12, 4-(3-chloro-4-methoxybenzyloxy)-N-[(trans)-4-hydroxycyclohexyl]-2-(6-azaspiro[2.5]octan-6-yl)pyrimidine-5-carboxamide] | 0.719 nM | 1.44 h | half-life ([2]; po, 1 mg/kg): 1.94 h
COc1ccc(COc2nc(N3CCC4(CC3)CC4)ncc2C(=O)NCc2ccccc2)cc1Cl [Compound 10, N-benzyl-4-(3-chloro-4-methoxybenzyloxy)-2-(6-azaspiro[2.5]octan-6-yl)pyrimidine-5-carboxamide] | 1.14 nM | 2.35 h | 
COc1ccc(COc2nc(N3CCCC34CC4)ncc2C(=O)NCc2ccccc2)cc1Cl [Compound 14, N-benzyl-4-(3-chloro-4-methoxybenzyloxy)-2-(4-azaspiro[2.4]heptan-4-yl)-pyrimidine-5-carboxamide] | 1.98 nM | 2.21 h | Effects on penis length, AUC (mm × min) [4, 13]: 290.1 mm × min
